By GI50 is commonly meant the concentration that inhibits growth by half. The pIC50 is the IC50 on a negative log10 scale, so that one unit is a factor of ten.

Each structure is given as a SMILES string. pEC50, pIC50: −log10 of the molar value.

Among the data in US9561228B2 (Celgene Avilomics Research, Inc., priority 2013, dated 2017) are GI50, IC50 and EC50 values, retold here.

Test [1] deals with HT-29 cells (colorectal adenocarcinoma). The test is described as follows: Inhibition of cancer cell proliferation, HT-29 (CellTiterGlo, 72 hours). The class given is cell-based. The settings on record: Homo sapiens. The protocol: Measurement of Inhibition of Cancer Cell Proliferation (HT-29/Colorectal Adenocarcinoma)
The following protocol used an HT-29 cell line, which cell line is a model for colorectal adenocarcinoma. HT-29 cells were split and 3000 cells in 100 μl of growth medium were added per well of a flat-bottom 96-well plate. A two-fold test compound solution in serum-free RPM1640 was made, starting at 5,000 nM. Then, 3-fold serial dilutions were made across the plate from well 1 to well 11. Well 12, the last well in a row on the plate, was left as untreated control. 100 μl compound solutions were then transferred to the wells, so the total volume of media was 200 μl per well. Plates were returned to a 37° C. incubator, and the cells were cultured for 72 hours. To measure cell proliferation after 72 hours, media was discarded from the plates, 50 μl/well of fresh medium was added, and 50 μl CellTiterGlo solution was added (Promega Cat#G7573). The plate was covered with a dark lid and incubated for 10 min. A white sealing tape was applied to the bottom of the plate, and the plate was read in a luminescence plate reader. […] A 2-fold serial dilution was used to generate 8 cell densities from 50,000-390 cells per well in 50 μl media. 50 μl CellTiterGlo was added per well, and the plate was read in a luminescence plate reader after 10 min. The reading was plotted vs. cell number to generate a standard curve and the equation of the curve fit. The compound-treated sample luminescence readings were converted to cell numbers using the curve-fit equation. The percent of inhibition, using untreated control as 100% growth, was then calculated. GI50 was then calculated by GraphPad Prism.
Background: ATP-based viability assays read luminescence as a measure of living cells.

The target in a further test is T1, MEK1 activated ERK1 (Homo sapiens, UniProt P27361).
T1 construct: purchased Millipore (Billerica, Mass.) 14-439-K
The test is described as follows: Omnia continuous-read kinase assay for potency against MEK1 activated ERK1. Type of test: biochemical. The settings on record: MEK1 activated ERK1, ATP at KM; read-out: ERK1 Omnia WT ATP KM IC50. In short, it runs like this: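 Apparent IC50 came from initial reaction slopes (RFU vs time) plotted against log inhibitor with a variable-slope fit. Reactions were started with ERK1 (4 nM final) added to 50 μM ATP, roughly at its appKM, and 10 μM Sox-conjugated ST17 peptide in 20 mM Tris pH 7.5, 5 mM MgCl2. Fluorescence was monitored every 71 seconds.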

Test [2] has as its system ERK1/2 phosphorylation of p90RSK in HT29 cells. The test is described as follows: pRSK MSD Assay in HT29 cells. The class given is cell-based. The settings on record: Homo sapiens, HT-29, read-out: ERK1/ERK2 PRSK MSD HT29 EC50. In short, it runs like this: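 Serum-starved HT29 cells (0.1% FBS overnight) treated with test compound for 120 min at 37° C, then lysed with protease and phosphatase inhibitors. Phospho-p90RSK quantified by MSD sandwich immunoassay: RSK capture antibody, phospho-RSK detection antibody plus Sulfo-tagged antibody, electrochemiluminescence read.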

T1 sequence (P27361 whole entry): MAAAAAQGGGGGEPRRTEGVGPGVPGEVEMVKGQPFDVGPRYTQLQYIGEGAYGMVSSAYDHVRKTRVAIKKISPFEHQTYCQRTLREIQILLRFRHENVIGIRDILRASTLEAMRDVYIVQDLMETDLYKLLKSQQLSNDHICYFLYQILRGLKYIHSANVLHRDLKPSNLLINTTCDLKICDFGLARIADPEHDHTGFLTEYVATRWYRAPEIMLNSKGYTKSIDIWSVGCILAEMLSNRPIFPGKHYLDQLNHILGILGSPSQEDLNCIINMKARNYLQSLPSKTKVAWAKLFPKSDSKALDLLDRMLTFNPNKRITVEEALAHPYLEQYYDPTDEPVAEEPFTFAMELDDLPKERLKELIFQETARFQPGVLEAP

For the compound `C=CC(=O)Nc1ccccc1Nc1nc(NC2CCN(S(C)(=O)=O)CC2)ncc1Cl` [Compound I-117, N-(2-((5-chloro-2-((1-(methylsulfonyl)piperidin-4-yl)amino)pyrimidin-4-yl)amino)phenyl)acrylamide], in test [1], the 50% growth inhibitory concentration (GI50) was in the range of 101 to 500 nM. Besides, the pIC50 at MEK1 activated ERK1 is 6.30 to 7.00. Besides, in test [2], the pEC50 was 6.30 to 7.00.
With `C=CC(=O)Nc1cc(OC)ccc1Nc1nc(Nc2ccc3c(c2)CC(=O)N3CC)ncc1Cl` [Compound I-166, N-(2-((5-chloro-2-((1-ethyl-2-oxoindolin-5-yl)amino)pyrimidin-4-yl)amino)-5-methoxyphenyl)acrylamide], the concentration for 50% growth inhibition (GI50) in test [1] lay within 101 to 500 nM. The negative-log IC50 (pIC50) at MEK1 activated ERK1 was 6.30 to 7.00. Moreover, in test [2], the pEC50 was 6.30 to 7.00.
As for `C=CC(=O)Nc1ccccc1Nc1nc(Nc2cc(C(N)=O)c(OCCCNC(=O)CCCC(=O)NCCCOCCOCCOCCCNC(=O)CCCC[C@@H]3SC[C@@H]4NC(=O)N[C@@H]43)cc2C)ncc1Cl` [Compound I-299, N^1-(3-(4-((4-((2-acrylamidophenyl)amino)-5-chloropyrimidin-2-yl)amino)-2-carbamoyl-5-methylphenoxy)propyl)-N^5-(15-oxo-19-((3aS,4S,6aR)-2-oxohexahydro-1H-thieno[3,4-d]imidazol-4-yl)-4,7,10-trioxa-14-azanonadecyl)glutaramide], the GI50 in test [1] was above 1000 nM. For the same compound, the negative-log IC50 (pIC50) at MEK1 activated ERK1 is 6.30 to 7.00. In addition, the pEC50 in test [2] was below 6.00.
In the same order, the values of `C=CC(=O)Nc1ccccc1Nc1nc(Nc2ccc(N3CCC[C@@H]3C(N)=O)cc2C#N)ncc1Cl` [Compound I-179, (R)-1-(4-((4-((2-acrylamidophenyl)amino)-5-chloropyrimidin-2-yl)amino)-3-cyanophenyl)pyrrolidine-2-carboxamide] are above 1000 nM, 6.30 to 7.00 and 6.00 to 6.30.
In the same order, the values of `C=CC(=O)Nc1ccccc1Nc1nc(N[C@H]2CCCNC2)ncc1Cl` [Compound I-126, (S)—N-(2-((5-chloro-2-(piperidin-3-ylamino)pyrimidin-4-yl)amino)phenyl)acrylamide] are 501 to 999 nM, 6.30 to 7.00 and 6.00 to 6.30.
Taken in the same sequence, the figures for `C=CC(=O)Nc1ccccc1Nc1nc(Nc2ccc(F)cc2C)ncc1Cl` [Compound I-209, N-(2-((5-chloro-2-((4-fluoro-2-methylphenyl)amino)pyrimidin-4-yl)amino)phenyl)acrylamide] were 501 to 999 nM, 6.30 to 7.00 and 6.30 to 7.00.
For the compound `C=CC(=O)Nc1ccccc1Nc1nc(Nc2cc(C(=O)NOCCO)ccc2OC)ncc1C(F)(F)F` [Compound I-74, 3-((4-((2-Acrylamidophenyl)amino)-5-(trifluoromethyl)pyrimidin-2-yl)amino)-N-(2-hydroxyethoxy)-4-methoxybenzamide], the 50% growth inhibitory concentration (GI50) in test [1] is 101 to 500 nM. Further, the negative-log IC50 (pIC50) on MEK1 activated ERK1 is 6.30 to 7.00. Also, the pEC50 in test [2] was 6.00 to 6.30.
In the same order, the values of `C=CC(=O)Nc1ccccc1Nc1nc(Nc2ccc(N(CCCN)C(C)=O)cc2OC)ncc1Cl` [Compound I-167, N-(2-((2-((4-(N-(3-aminopropyl)acetamido)-2-methoxyphenyl)amino)-5-chloropyrimidin-4-yl)amino)phenyl)acrylamide] are above 1000 nM, 6.30 to 7.00 and below 6.00.
In the same order, the values of `C=CC(=O)Nc1cc(F)ccc1Nc1nc(N[C@@H]2CCC[C@H](C(N)=O)C2)ncc1C(F)(F)F` (racemic) [Compound I-5, Rac-cis-3-((4-((2-acrylamido-4-fluorophenyl)amino)-5-(trifluoromethyl)pyrimidin-2-yl)amino)cyclohexanecarboxamide] are 101 to 500 nM, above 7.00 and 6.30 to 7.00.
On to `C=CC(=O)Nc1ccccc1Oc1nc(Nc2ccc(N3CCC[C@@H]3C(N)=O)cc2OC)ncc1C(N)=O` [Compound I-266, (R)-4-(2-acrylamidophenoxy)-2-((4-(2-carbamoylpyrrolidin-1-yl)-2-methoxyphenyl)amino)pyrimidine-5-carboxamide], for which the GI50 in test [1] is above 1000 nM. The negative-log IC50 (pIC50) at MEK1 activated ERK1 was 6.30 to 7.00.
`C=CC(=O)Nc1cc(OC)ccc1Nc1nc(Nc2ccc(N3CCCN(C(=O)OC(C)(C)C)CC3)cc2C#N)ncc1Cl` [Compound I-156, tert-butyl 4-(4-((4-((2-acrylamido-4-methoxyphenyl)amino)-5-chloropyrimidin-2-yl)amino)-3-cyanophenyl)-1,4-diazepane-1-carboxylate] registered a GI50 in test [1] above 1000 nM. For the same compound, the pIC50 at MEK1 activated ERK1 is 6.30 to 7.00. Also, the pEC50 in test [2] is 6.00 to 6.30.
`C=CC(=O)N[C@@H]1CCCC[C@H]1Nc1nc(Nc2cc(C(N)=O)ccc2C)ncc1C(N)=O` (racemic) [Compound I-255, Rac-trans-4-((2-acrylamidocyclohexyl)amino)-2-((5-carbamoyl-2-methylphenyl)amino)pyrimidine-5-carboxamide] gave a concentration for 50% growth inhibition (GI50) in test [1] above 1000 nM. Moreover, the pIC50 on MEK1 activated ERK1 was below 6.00.
Turning to `C=CC(=O)Nc1ccccc1Nc1nc(N[C@H]2CCCN(S(C)(=O)=O)C2)ncc1Cl` [Compound I-125, (S)—N-(2-((5-chloro-2-((1-(methylsulfonyl)piperidin-3-yl)amino)pyrimidin-4-yl)amino)phenyl)acrylamide], the GI50 in test [1] fell in the range of 101 to 500 nM. For the same compound, in test [2], the pEC50 was 6.30 to 7.00.
Taken in the same sequence, the figures for `C=CC(=O)Nc1cc(F)ccc1Nc1nc(Nc2ccc(F)cc2C#N)ncc1Cl` [Compound I-221, N-(2-((5-chloro-2-((2-cyano-4-fluorophenyl)amino)pyrimidin-4-yl)amino)-5-fluorophenyl)acrylamide] were 501 to 999 nM and above 7.00.
Compound `C=CC(=O)N[C@@H]1CCCC[C@H]1Nc1nc(Nc2cc(C(=O)NOC)ccc2C)ncc1C(N)=O` (racemic) [Compound I-256, Rac-trans-4-((2-acrylamidocyclohexyl)amino)-2-((5-(methoxycarbamoyl)-2-methylphenyl)amino)pyrimidine-5-carboxamide] registered a GI50 in test [1] above 1000 nM. Moreover, on MEK1 activated ERK1, the pIC50 was below 6.00.
`C=CC(=O)Nc1ccccc1Nc1nc(N[C@H]2CCCN(C=O)C2)ncc1C(F)(F)F` [Compound I-9, (S)—N-(2-((2-((1-formylpiperidin-3-yl)amino)-5-(trifluoromethyl)pyrimidin-4-yl)amino)phenyl)acrylamide] yielded a 50% growth inhibitory concentration (GI50) in test [1] of 101 to 500 nM. In addition, in test [2], the pEC50 is above 7.00.
`C=CC(=O)Nc1ccccc1Nc1nc(Nc2cc(C(N)=O)ccc2CC)ncc1Cl` [Compound I-193, 3-((4-((2-acrylamidophenyl)amino)-5-chloropyrimidin-2-yl)amino)-4-ethylbenzamide]: in test [1], the GI50 is 101 to 500 nM. Further, the pEC50 in test [2] is 6.30 to 7.00.
In test [1], `C=CC(=O)Nc1ccccc1Nc1nc(N[C@@H]2CCC[C@H](C(N)=O)C2)ncc1Cl` [Compound I-119, (1S,3R)-3-((4-((2-acrylamidophenyl)amino)-5-chloropyrimidin-2-yl)amino)cyclohexanecarboxamide] gave a concentration for 50% growth inhibition (GI50) of 101 to 500 nM. In addition, the pEC50 in test [2] is 6.00 to 6.30.
In test [1], `C=CC(=O)Nc1ccccc1Nc1nc(Nc2cc(C(=O)NOC)ccc2C#N)ncc1C(F)(F)F` [Compound I-72, 3-((4-((2-Acrylamidophenyl)amino)-5-(trifluoromethyl)pyrimidin-2-yl)amino)-4-cyano-N-methoxybenzamide] returned a GI50 above 1000 nM. Also, the pIC50 on MEK1 activated ERK1 is 6.30 to 7.00.
`C=CC(=O)Nc1ccccc1Nc1nc(Nc2ccc(OCCCNC(=O)CCCC(=O)NCCCOCCOCCOCCCNC(=O)CCCC[C@H]3SC[C@H]4NC(=O)N[C@H]43)cc2OC)ncc1Cl` [Compound I-302, N^1-(3-(4-((4-((2-acrylamidophenyl)amino)-5-chloropyrimidin-2-yl)amino)-3-methoxyphenoxy)propyl)-N^5-(15-oxo-19-((3aR,4R,6aS)-2-oxohexahydro-1H-thieno[3,4-d]imidazol-4-yl)-4,7,10-trioxa-14-azanonadecyl)glutaramide] had a GI50 in test [1] above 1000 nM. For the same compound, the pEC50 in test [2] was below 6.00.
In the same order, the values of `C=CC(=O)Nc1ccccc1Nc1nc(Nc2cc(C(N)=O)ccc2C#N)ncc1Cl` [Compound I-192, 3-((4-((2-acrylamidophenyl)amino)-5-chloropyrimidin-2-yl)amino)-4-cyanobenzamide] are below 100 nM and above 7.00.
